Among the data in the supplement of paper PMC10307832 are relative viability values, retold here.

Common to all, as to assay: relative viability (nuclei count vs DMSO), 5 days (fraction); higher = more cells survive
Compound in assay [1]: O=C(c1cc(Cc2n[nH]c(=O)c3ccccc23)ccc1F)N1CCN(C(=O)C2CC2)CC1 [Olaparib] + C[C@@H](Oc1cc(-c2cnn(C3CCNCC3)c2)cnc1N)c1c(Cl)ccc(F)c1Cl [Crizotinib] (partner 1 µM)
The gist of the method: (§1)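 Lung cancer cell lines in 1536-well plates were dosed by pin tool the day after seeding, either with one drug alone or with a fixed anchor-drug dose plus five library-drug doses (not always all listed) in √10 steps. After 5 days, cells were fixed and their nuclei stained in one step (final 0.05% Triton X-100, 1% formaldehyde, 1 ug/ml Hoechst), then counted on 4× images. Relative viability is the nuclei count in treated wells divided by that in vehicle wells. Values are medians of duplicate plates.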

Compound in assay [2]: C[C@@H](Oc1cc(-c2cnn(C3CCNCC3)c2)cnc1N)c1c(Cl)ccc(F)c1Cl [Crizotinib] + O=C(c1cc(Cc2n[nH]c(=O)c3ccccc23)ccc1F)N1CCN(C(=O)C2CC2)CC1 [Olaparib] (partner 8 µM)
A digest of the protocol: as §1

Compound in assay [3]: CC(C)C[C@H](NC(=O)[C@H](CCc1ccccc1)NC(=O)CN1CCOCC1)C(=O)N[C@@H](Cc1ccccc1)C(=O)N[C@@H](CC(C)C)C(=O)[C@@]1(C)CO1 [Carfilzomib] + Cc1nc(NC(=O)N2CCC[C@H]2C(N)=O)sc1-c1ccnc(C(C)(C)C(F)(F)F)c1 [Alpelisib] (partner 2 µM)
The gist of the method: as §1

Compound in assay [4]: C[C@@H](Oc1cc(-c2cnn(C3CCNCC3)c2)cnc1N)c1c(Cl)ccc(F)c1Cl [Crizotinib] + Cc1cc(Nc2cc(N3CCN(C)CC3)nc(Sc3ccc(NC(=O)C4CC4)cc3)n2)n[nH]1 [Tozasertib] (partner 0.1 µM)
A digest of the protocol:
as §1

NCI-H3122: the relative viability in assay [1] (first compound 0.08 µM) was determined as 0.266; in assay [1] (first compound 0.253 µM), 0.292; in assay [1] (first compound 2.53 µM), 0.266; in assay [1] (first compound 8 µM), 0.28; in assay [2] (first compound 0.01 µM), 0.597; in assay [2] (first compound 0.03162 µM), 0.57. Besides, the relative viability in assay [2] (first compound 0.1 µM) is 0.61; in assay [2] (first compound 0.3162 µM), 0.637; in assay [2] (first compound 1 µM) it was 0.631; in assay [3] (first compound 0.001 µM) it was 0.748; in assay [3] (first compound 0.003162 µM), 0.847; in assay [3] (first compound 0.01 µM) it was 0.748. The relative viability was found to be 0.959 in assay [3] (first compound 0.03162 µM); 0.69 in assay [3] (first compound 0.1 µM); 0.404 in assay [4] (first compound 0.01 µM); 0.34 in assay [4] (first compound 0.03162 µM); 0.457 in assay [4] (first compound 0.1 µM); 0.181 in assay [4] (first compound 0.3162 µM). Besides, the relative viability in assay [4] (first compound 1 µM) was 0.154.

Regarding LCLC-97TM1, the relative viability in assay [1] (first compound 0.08 µM) worked out at 0.409; in assay [1] (first compound 0.253 µM) it was 0.35; in assay [1] (first compound 2.53 µM), 0.365; in assay [1] (first compound 8 µM) it was 0.305; in assay [2] (first compound 0.01 µM), 0.308; in assay [2] (first compound 0.03162 µM), 0.32. In addition, the relative viability in assay [2] (first compound 0.1 µM) worked out at 0.353; in assay [2] (first compound 0.3162 µM), 0.384; in assay [2] (first compound 1 µM), 0.428; in assay [3] (first compound 0.001 µM), 0.307; in assay [3] (first compound 0.003162 µM), 0.258; in assay [3] (first compound 0.01 µM), 0.266. Also, the relative viability amounted to 0.101 in assay [3] (first compound 0.03162 µM); 0.126 in assay [3] (first compound 0.1 µM); 0.19 in assay [4] (first compound 0.01 µM); 0.234 in assay [4] (first compound 0.03162 µM); 0.21 in assay [4] (first compound 0.1 µM); 0.201 in assay [4] (first compound 0.3162 µM). Further, in assay [4] (first compound 1 µM), the relative viability came out at 0.224.

Take LXF-289: the relative viability in assay [1] (first compound 0.08 µM) is 0.907; in assay [1] (first compound 0.253 µM), 0.799; in assay [1] (first compound 2.53 µM), 0.889; in assay [1] (first compound 8 µM) it was 0.875; in assay [2] (first compound 0.01 µM), 0.994; in assay [2] (first compound 0.03162 µM), 1.12. In addition, the relative viability in assay [2] (first compound 0.1 µM) is 1.15; in assay [2] (first compound 0.3162 µM) it was 0.993; in assay [2] (first compound 1 µM), 1.11; in assay [3] (first compound 0.001 µM), 1.06; in assay [3] (first compound 0.003162 µM), 1.07; in assay [3] (first compound 0.01 µM), 0.979. Also, the relative viability in assay [3] (first compound 0.03162 µM) came out at 0.0883; in assay [3] (first compound 0.1 µM) it was 0.0581; in assay [4] (first compound 0.01 µM), 0.221; in assay [4] (first compound 0.03162 µM), 0.201; in assay [4] (first compound 0.1 µM), 0.18; in assay [4] (first compound 0.3162 µM), 0.157. The relative viability in assay [4] (first compound 1 µM) came out at 0.197.

As to HCC-78, the relative viability in assay [1] (first compound 0.08 µM) amounted to 0.395; in assay [1] (first compound 0.253 µM), 0.356; in assay [1] (first compound 2.53 µM), 0.396; in assay [1] (first compound 8 µM), 0.368; in assay [2] (first compound 0.01 µM), 0.737; in assay [2] (first compound 0.03162 µM) it was 0.646. For the same cell line, the relative viability was found to be 0.705 in assay [2] (first compound 0.1 µM); 0.681 in assay [2] (first compound 0.3162 µM); 0.837 in assay [2] (first compound 1 µM); 0.327 in assay [3] (first compound 0.001 µM); 0.45 in assay [3] (first compound 0.003162 µM); 0.362 in assay [3] (first compound 0.01 µM). Moreover, the relative viability in assay [3] (first compound 0.03162 µM) came to 0.287; in assay [3] (first compound 0.1 µM) it was 0.157; in assay [4] (first compound 0.03162 µM), 0.47; in assay [4] (first compound 0.1 µM), 0.419; in assay [4] (first compound 0.3162 µM), 0.391; in assay [4] (first compound 1 µM), 0.442.

Regarding NCI-H2405, the relative viability in assay [1] (first compound 0.08 µM) came out at 0.948; in assay [1] (first compound 0.253 µM) it was 0.83; in assay [1] (first compound 2.53 µM), 0.769; in assay [1] (first compound 8 µM), 0.809; in assay [2] (first compound 0.01 µM), 0.794; in assay [2] (first compound 0.03162 µM), 0.837. Further, the relative viability is 0.906 in assay [2] (first compound 0.1 µM); 0.751 in assay [2] (first compound 0.3162 µM); 0.901 in assay [2] (first compound 1 µM); 1.13 in assay [3] (first compound 0.003162 µM); 0.777 in assay [3] (first compound 0.01 µM); 0.312 in assay [3] (first compound 0.03162 µM). Besides, the relative viability in assay [3] (first compound 0.1 µM) was determined as 0.168; in assay [4] (first compound 0.01 µM), 0.702; in assay [4] (first compound 0.03162 µM) it was 0.811; in assay [4] (first compound 0.1 µM), 0.761; in assay [4] (first compound 0.3162 µM) it was 0.706; in assay [4] (first compound 1 µM), 0.697.

With NCI-H727, the relative viability in assay [1] (first compound 0.08 µM) was determined as 0.934; in assay [1] (first compound 0.253 µM), 0.737; in assay [1] (first compound 2.53 µM), 0.671; in assay [1] (first compound 8 µM) it was 0.48; in assay [2] (first compound 0.01 µM), 0.462; in assay [2] (first compound 0.03162 µM) it was 0.565. The relative viability in assay [2] (first compound 0.1 µM) turned out to be 0.647; in assay [2] (first compound 0.3162 µM) it was 0.518; in assay [2] (first compound 1 µM) it was 0.737; in assay [3] (first compound 0.001 µM), 0.683; in assay [3] (first compound 0.003162 µM) it was 0.542; in assay [3] (first compound 0.01 µM), 0.655. Besides, the relative viability in assay [3] (first compound 0.03162 µM) worked out at 0.421; in assay [3] (first compound 0.1 µM), 0.0733; in assay [4] (first compound 0.03162 µM), 0.605; in assay [4] (first compound 0.1 µM), 0.612; in assay [4] (first compound 1 µM), 0.634.

Consider LC-2-ad, for which the relative viability came out at 0.368 in assay [1] (first compound 0.08 µM); 0.388 in assay [1] (first compound 0.253 µM); 0.472 in assay [1] (first compound 2.53 µM); 0.406 in assay [1] (first compound 8 µM); 0.806 in assay [2] (first compound 0.01 µM); 0.689 in assay [2] (first compound 0.03162 µM). Further, the relative viability in assay [2] (first compound 0.1 µM) came out at 0.712; in assay [2] (first compound 1 µM), 0.751; in assay [3] (first compound 0.001 µM), 0.915; in assay [3] (first compound 0.003162 µM), 0.923; in assay [3] (first compound 0.01 µM) it was 0.956; in assay [3] (first compound 0.03162 µM), 0.106. Further, the relative viability is 0.109 in assay [3] (first compound 0.1 µM); 0.425 in assay [4] (first compound 0.01 µM); 0.454 in assay [4] (first compound 0.03162 µM); 0.431 in assay [4] (first compound 0.1 µM); 0.423 in assay [4] (first compound 0.3162 µM); 0.47 in assay [4] (first compound 1 µM).
